Reference: PMC10325066, “The FMRF-NH2 gated sodium channel of Biomphalaria glabrata: Localization and expression following infection by Schistosoma mansoni” (PLOS Neglected Tropical Diseases, 2023)
Entries after “also recorded” stand apart in the source; their conditions may differ.

Assays:
[1] = test system: Cornu aspersum FaNaC; design: method as in PMID 7501021; settings: cited from earlier work
[2] = test system: Planorbella FaNaC; design: method as in PMID 10878095; settings: cited from earlier work
[3] = test system: Biomphalaria glabrata FMRF-NH2 gated sodium channel (Bgl-FaNaC); experiment: Two-electrode voltage clamp of Bgl-FaNaC heterologously expressed in Xenopus oocytes; assay type: cell-based; settings: peptide 1 mM (given for FLRF-NH2, pQFYRI-NH2, FIRF-NH2; not given for GDPFLRF-NH2); oocyte voltage clamp -60 mV
Procedure: The cDNA encoding the Bgl-FaNaC sequence was codon-optimized for Xenopus laevis and synthesized by Integrated DNA Technologies (IDT, Coralville IA). The Flag-tag protein affinity sequence (DYKDDDDK; Sigma-Aldrich) was added to the N-terminal to enable confirmation of expression. The cDNA was subcloned into the Xenopus expression vector pGEM HE as described previously. The Bgl-FaNaC full-length RNA was transcribed in vitro, capped and polyadenylated using the T7 mScript Standard mRNA Production System (CellScript, Madison WI).
Oocytes were obtained from dissected ovaries of adult Xenopus laevis specimens (Xenopus Express, Brooksville FL). They were dispersed with type II collagenase and manually defolliculated. RNA injections were performed in pre-selected oocytes from stages V and VI. Oocytes were injected with 38.6 nL of Bgl-FaNaC encoding RNA at a concentration of 20 ng/uL using a Nanoliter 2000 microinjector (World Precision Instruments, Sarasota FL).
Injected oocytes were placed at the bottom of a plastic recording chamber (3 ml volume) lined with a nylon mesh and continuously perfused with ND96 (96 mM NaCl, 2 mM KCl, 1.8 mM CaCl2, 1 mM MgCl2, 5 mM HEPES, pH 7.6; see detailed methods in [38]). An OC725B oocyte clamp (Warner Instruments LLC., Hamden CT) was used to clamp the membrane potential at -60 mV with independent microelectrodes for recording (0.1 M potassium chloride) and passing current (3 M potassium chloride). Data were acquired on a Digidata 1200 interface with Clampex (V.6) and analyzed with AxoScope 10.7 (Axon Instruments, Union City CA). All experiments were carried out at room temperature (20–25°C).
Synthetic FMRF-NH2, FLRF-NH2, FIRF-NH2, pQFYRI-NH2, and GDPFLRF-NH2 peptides (>90% purity) were purchased from GL Biochem (Shanghai, China). All peptides were dissolved in ND96 in a stock of 1 mM. Peptide stocks were frozen at -20°C and serial dilutions were freshly prepared before each experiment. Peptides were applied manually using a pipettor (1 mL, upstream from the oocyte).

Compound	Current response to related peptide application [3]	other results
N=C(N)NC(=O)c1nc(Cl)c(N)nc1N [amiloride]	–	Effect of amiloride on FaNaC ([1]; FaNaC of Cornu aspersa): blocks; Effect of amiloride on FaNaC responses to FMRF-NH2 [2]: potentiates responses to FMRF-NH2
FIRF-NH2 [Synthetic peptide encoded on the tetrapeptide precursor Bgl-FaRP1]	No currents	–
FLRF-NH2 [Synthetic related peptide encoded on the Biomphalaria FMRF-NH2 precursor]	No currents; also recorded: No response was detected	EC50 ([1]; C. aspersum FaNaC, read-out: EC50 for FaNaC activation): 11 µM; Response of FaNaC to peptide [2]: negligible
GDPFLRF-NH2 [Synthetic heptapeptide, product of the heptapeptide precursor Bgl-FaRP2]	No currents; also recorded: No response was elicited	–
pQFYRI-NH2 [Synthetic peptide encoded on the tetrapeptide precursor Bgl-FaRP1]	No currents	–
